Assay results published in ChEMBL document CHEMBL1201862, “PubChem BioAssay data set” (2004).
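In this assay, cells in 96-well plates receive the compound at five concentrations for 48 hours. Endpoints are linearly interpolated between the surrounding concentrations. The concentration for 50% growth inhibition is given as GI50.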 Activity calls are given as the source filed them. No stated cut-off is given here; in the data, active = GI50 up to about 1.1 µM and inactive = higher.

Legend:
Test in all cases: NCI-60 cell line screen, 48 h
[1] = system: T47D
[2] = system: LOX IMVI
[3] = system: EKVX
[4] = system: NCI-H226
[5] = system: SF-295
[6] = system: HCT-116
[7] = system: NCI-H460
[8] = system: HOP-62
[9] = system: SR
[10] = system: OVCAR-4
[11] = system: PC-3
[12] = system: CCRF-CEM
[13] = system: SK-MEL-2
[14] = system: HL-60
[15] = system: SK-MEL-5
[16] = system: CAKI-1
[17] = system: BT-549
[18] = system: COLO 205
[19] = system: RXF 393
[20] = system: UACC-62
[21] = system: K562
[22] = system: SW-620
[23] = system: A549
[24] = system: 786-0
[25] = system: MDA-MB-231
[26] = system: A498
[27] = system: M14
[28] = system: Malme-3M
[29] = system: OVCAR-8
[30] = system: SF-268
[31] = system: SN12C
[32] = system: HT-29
[33] = system: OVCAR-5
[34] = system: SK-OV-3
[35] = system: TK-10
[36] = system: MDA-N
[37] = system: HCT-15
[38] = system: KM12
[39] = system: SF-539
[40] = system: IGROV-1
[41] = system: OVCAR-3
[42] = system: RPMI-8226
[43] = system: MDA-MB-435
[44] = system: SNB-19
[45] = system: NCI/ADR-RES
[46] = system: UO-31
[47] = system: UACC-257
[48] = system: MCF7
[49] = system: HCC 2998
[50] = system: U-251
[51] = system: Hs-578T
[52] = system: NCI-H522
[53] = system: ACHN
[54] = system: SNB-75
[55] = system: SK-MEL-28
[56] = system: NCI-H23
[57] = system: HOP-92
[58] = system: MOLT-4

Compound: CC(=O)O[C@H]1[C@@H](N2CCN(C)CC2)C[C@H]2[C@@H]3CC=C4C[C@@H](N5CCCC5)CC[C@]4(C)[C@H]3CC[C@@]21C
- GI50 [1]: > 100 µM (inactive)
- GI50 [2]: 17.4 µM (inactive)
- GI50 [3]: 74.5 µM (inactive)
- GI50 [4]: > 100 µM (inactive)
- GI50 [5]: 21.7 µM (inactive)
- GI50 [6]: 16.9 µM (inactive)
- GI50 [7]: 60.5 µM (inactive)
- GI50 [8]: 46.5 µM (inactive)
- GI50 [9]: < 0.01 µM (active)
- GI50 [10]: > 100 µM (inactive)
- GI50 [11]: 40.9 µM (inactive)
- GI50 [12]: 30.4 µM (inactive)
- GI50 [13]: > 100 µM (inactive)
- GI50 [14]: 11.2 µM (inactive)
- GI50 [15]: 25.9 µM (inactive)
- GI50 [16]: 49.4 µM (inactive)
- GI50 [17]: > 100 µM (inactive)
- GI50 [18]: 3.85 µM (inactive)
- GI50 [19]: 22.2 µM (inactive)
- GI50 [20]: 59.4 µM (inactive)
- GI50 [21]: 11.2 µM (inactive)
- GI50 [22]: 44.9 µM (inactive)
- GI50 [23]: 37.7 µM (inactive)
- GI50 [24]: 25.8 µM (inactive)
- GI50 [25]: 63 µM (inactive)
- GI50 [26]: > 100 µM (inactive)
- GI50 [27]: 17.8 µM (inactive)
- GI50 [28]: 26.1 µM (inactive)
- GI50 [29]: 85.1 µM (inactive)
- GI50 [30]: 47.6 µM (inactive)
- GI50 [31]: > 100 µM (inactive)
- GI50 [32]: 4.14 µM (inactive)
- GI50 [33]: 34.5 µM (inactive)
- GI50 [34]: > 100 µM (inactive)
- GI50 [35]: > 100 µM (inactive)
- GI50 [36]: 26.1 µM (inactive)
- GI50 [37]: 26.1 µM
- GI50 [38]: 22.4 µM (inactive)
- GI50 [39]: 15 µM (inactive)
- GI50 [40]: 68.4 µM (inactive)
- GI50 [41]: 88.7 µM (inactive)
- GI50 [42]: 19.2 µM (inactive)
- GI50 [43]: 24.6 µM (inactive)
- GI50 [44]: > 100 µM (inactive)
- GI50 [45]: 98.4 µM (inactive)
- GI50 [46]: 34.9 µM (inactive)
- GI50 [47]: 21.1 µM (inactive)
- GI50 [48]: > 100 µM (inactive)
- GI50 [49]: 17.2 µM (inactive)
- GI50 [50]: 50 µM (inactive)
- GI50 [51]: > 100 µM (inactive)
- GI50 [52]: 23.4 µM (inactive)
- GI50 [53]: > 100 µM (inactive)
- GI50 [54]: > 100 µM (inactive)
- GI50 [55]: 28.1 µM (inactive)
- GI50 [56]: > 100 µM (inactive)
- GI50 [57]: > 100 µM (inactive)
- GI50 [58]: 15.6 µM (inactive)
